# Laboratory results taken from patent US10315992B2, “Tetracyline compounds” (Tetraphase Pharmaceuticals, Inc., priority 2012, dated 2019).
# Like-named read-outs stand apart in the source and are kept apart here.
# How the values were obtained:
# [1] = tested on: Pseudomonas aeruginosa PA669 (2009 tracheal aspirate isolate); assay: MIC assay, PA669; format: cell-based
# [2] = tested on: Stenotrophomonas maltophilia SM256 (cystic fibrosis isolate, MDR); assay: MIC assay, SM256; format: cell-based
# [3] = tested on: Streptococcus pneumoniae SP106 (ATCC 49619); assay: MIC assay, SP106; format: cell-based; details: ATCC49619, read-out: MIC SP 106 49619
# [4] = tested on: Streptococcus pneumoniae SP160 (tet(M)); assay: MIC assay, SP160; format: cell-based
# [5] = tested on: Klebsiella pneumoniae KP457 (2009 ESBL+, CTX-M, OXA)
# [6] = tested on: Pseudomonas aeruginosa PA693 (2009 corneal scraping isolate); assay: MIC assay, PA693; format: cell-based
# PA 689 = assay: MIC assay, PA689; details: Pseudomonas aeruginosa, read-out: MIC PA 689
# Experimental: (§1) Minimum Inhibitory Concentration (MIC) Assay
# (§2) MICs were determined according to the Clinical and Laboratory Standards Institute (CLSI) guidances (e.g., CLSI. Performance standards for antimicrobial susceptibility testing; nineteenth information supplement. CLSI document M100-S19, CLSI, 940 West Valley Road, Suite 1400, Wayne, Pa. 19087-1898, USA, 2009). Briefly, frozen bacterial strains were thawed and subcultured onto Mueller Hinton Broth (MHB) or other appropriate media (Streptococcus requires blood and Haemophilus requires hemin and NAD). Following incubation overnight, the strains were subcultured onto Mueller Hinton Agar and again incubated overnight. […] Isolated colonies were selected to prepare a starting inoculum equivalent to a 0.5 McFarland standard. […] Test compounds were prepared by dilution in sterile water to a final concentration of 5.128 mg/mL. Antibiotics (stored frozen, thawed and used within 3 hours of thawing) and compounds were further diluted to the desired working concentrations.
# (§3) The assays were run as follows. Fifty μL of MHB was added to wells 2-12 of a 96-well plate. One hundred μL of appropriately diluted antibiotics was added to well 1. Fifty μL of antibiotics was removed from well 1 and added to well 2 and the contents of well 2 mixed by pipetting up and down five times. Fifty μL of the mixture in well 2 was removed and added to well 3 and mixed as above. Serial dilutions were continued in the same manner through well 12. Fifty μL was removed from well 12 so that all contained 50 μL. Fifty μL of the working inoculum was then added to all test wells. A growth control well was prepared by adding 50 μL of working inoculum and 50 μL of MHB to an empty well. The plates were then incubated at 37° C. overnight, removed from the incubator and each well was read on a plate reading mirror. The lowest concentration (MIC) of test compound that inhibited the growth of the bacteria was recorded.
# [7] = tested on: Proteus mirabilis PM385 (urine ESBL+ isolate); assay: MIC assay, PM385; format: cell-based
# [8] = tested on: Enterococcus faecalis EF327 (wound isolate, tet(M)); assay: MIC assay, EF327; format: cell-based
# [9] = tested on: Acinetobacter baumannii AB110 (ATCC 19606); assay: MIC assay, AB110; format: cell-based; details: ATCC19606, read-out: MIC AB 110 19606
# [10] = tested on: Haemophilus influenzae HI262 (tetracycline-resistant, ampicillin-resistant); assay: MIC assay, HI262; format: cell-based; details: read-out: MIC HI 262 33929
# [11] = tested on: Pseudomonas aeruginosa PA1145 (strain used in murine pneumonia model); assay: MIC assay, PA1145; format: cell-based
# [12] = tested on: Proteus mirabilis PM112 (ATCC 35659); assay: MIC assay, PM112; format: cell-based; details: ATCC35659, read-out: MIC PM 112 35659
# KP 194 7E+05 = assay: MIC assay, KP194; details: Table 5
# Experimental: as §1, §2, §3
# [13] = tested on: Staphylococcus aureus SA158 (tetracycline-resistant tet(K)); assay: MIC assay, SA158; format: cell-based
# [14] = tested on: Enterobacter cloacae EC108 (ATCC 13047); assay: MIC assay, EC108; format: cell-based; details: ATCC13047, read-out: MIC ECI 108 13047
# [15] = tested on: Escherichia coli EC107 (ATCC 25922); assay: MIC assay, EC107; format: cell-based
# [16] = tested on: Pseudomonas aeruginosa PA111 (ATCC 27853); assay: MIC assay, PA111; format: cell-based; details: ATCC27853, read-out: MIC PA 111 27853
# [17] = tested on: Staphylococcus aureus SA101 (ATCC 29213, MSSA); assay: MIC assay, SA101; format: cell-based
# [18] = tested on: Escherichia coli EC878 (MG1655 tolC::kan); assay: microbe, parasite or virus in culture; format: cell-based
# [19] = tested on: Staphylococcus aureus SA161 (HA-MRSA, tet(M)); assay: MIC assay, SA161; format: cell-based; details: Staphylococcus aureus, MRSA
# [20] = tested on: Escherichia coli EC155 (tet(A)); assay: MIC assay, EC155; format: cell-based; details: Escherichia coli, read-out: MIC EC 155 tetA
# [21] = tested on: Enterobacter cloacae EC603 (urine isolate); assay: MIC assay, EC603; format: cell-based
# [22] = tested on: Streptococcus pyogenes SP312 (2009 clinical isolate, tet(M)); assay: MIC assay, SP312; format: cell-based
structure (smiles),measurement,setting,value
"CN(C)[C@@H]1C(O)=C(C(N)=O)C(=O)[C@@]2(O)C(O)=C3C(=O)c4c(O)cccc4C[C@H]3C[C@@H]12 [Sancycline, sancycline]",MIC,[1],33 µg/mL
same,MIC,[1]; read-out: MIC PA 669,33 µg/mL
same,MIC,[2],1 µg/mL
same,MIC,[2]; read-out: MIC SM 256,1 µg/mL
same,MIC,[3],0.25 µg/mL
same,MIC,"[4]; read-out: MIC SP 160 tet M, S. pneumoniae tet(M), Table 6",8 µg/mL
same,MIC,"[4]; read-out: MIC SP 160 tetM, S. pneumoniae tet(M), Table 4",8 µg/mL
same,MIC,"[4]; read-out: MIC SP 160 tetM, S. pneumoniae tet(M), Table 5",8 µg/mL
same,MIC,"[4]; read-out: MIC SP 160 tetM, S. pneumoniae tet(M), Table 7",8 µg/mL
same,MIC,"[4]; read-out: MIC SP 160 tetM, control compounds",8 µg/mL
same,MIC,"[4]; read-out: MIC SP 160 tetM, control compounds, numeric",8 µg/mL
same,MIC KP 457,[5],8 µg/mL
same,MIC KP 457 CTX- M-15,[5],8 µg/mL
same,MIC KP 457 CTX-M-15,[5],8 µg/mL
same,MIC,[6],33 µg/mL
same,MIC,[6]; read-out: MIC PA 693,33 µg/mL
same,MIC,PA 689,16 µg/mL
same,MIC,[7]; read-out: MIC PM 385,8 µg/mL
same,MIC,[7]; read-out: MIC PM 385 CTX-M15,8 µg/mL
same,MIC,[8]; read-out: MIC EF 327 tet M,4 µg/mL
same,MIC,[8]; read-out: MIC EF 327 tetM,4 µg/mL
same,MIC,[9],0.25 µg/mL
same,MIC,[10],0.5 µg/mL
same,MIC,[11],33 µg/mL
same,MIC,[11]; read-out: MIC PA 1145,32 µg/mL
same,MIC,[12],4 µg/mL
same,MIC KP 194 7E+05,KP 194 7E+05,32 μg/mL
same,MIC,"[13]; read-out: MIC SA 158 tetK, S. aureus tet(K), Table 4",4 µg/mL
same,MIC,"[13]; read-out: MIC SA 158 tetK, S. aureus tet(K), Table 5",4 µg/mL
same,MIC,"[13]; read-out: MIC SA 158 tetK, S. aureus tet(K), Table 6",4 µg/mL
same,MIC,"[13]; read-out: MIC SA 158 tetK, S. aureus tet(K), Table 7",4 µg/mL
same,MIC,"[13]; read-out: MIC SA 158 tetK, control compounds",4 µg/mL
same,MIC,"[13]; read-out: MIC SA 158 tetK, control compounds, numeric",4 µg/mL
same,MIC,[14],8 µg/mL
same,MIC,"[15]; ATCC25922, read-out: MIC EC 07 25922, E. coli ATCC 25922, Table 7",8 µg/mL
same,MIC,"[15]; ATCC25922, read-out: MIC EC 107 259 22, E. coli ATCC 25922, Table 6",8 µg/mL
same,MIC,"[15]; ATCC25922, read-out: MIC EC 107 25922, E. coli ATCC 25922, Table 4",8 µg/mL
same,MIC,"[15]; ATCC25922, read-out: MIC EC 107 25922, E. coli ATCC 25922, Table 5",8 µg/mL
same,MIC,"[15]; ATCC25922, read-out: MIC EC 107 25922, control compounds",8 µg/mL
same,MIC,"[15]; ATCC25922, read-out: MIC EC 107 25922, control compounds, numeric",8 µg/mL
same,MIC,[16],33 µg/mL
same,MIC,"[17]; read-out: MIC SA 101 292 13, S. aureus ATCC 29213, MSSA, Table 6",0.5 µg/mL
same,MIC,"[17]; read-out: MIC SA 101 29213, S. aureus ATCC 29213, MSSA, Table 4",0.5 µg/mL
same,MIC,"[17]; read-out: MIC SA 101 29213, S. aureus ATCC 29213, MSSA, Table 5",0.5 µg/mL
same,MIC,"[17]; read-out: MIC SA 101 29213, S. aureus ATCC 29213, MSSA, Table 7",0.5 µg/mL
same,MIC,"[17]; read-out: MIC SA 101 29213, control compounds",0.5 µg/mL
same,MIC,"[17]; read-out: MIC SA 101 29213, control compounds, numeric",0.5 µg/mL
same,MIC,"[18]; MG1655, read-out: MIC EC 878 toIC, E. coli MG1655 tolC::kan, Table 6",1 µg/mL
same,MIC,"[18]; MG1655, read-out: MIC EC 878 toIC, E. coli MG1655 tolC::kan, Table 7",1 µg/mL
same,MIC,"[18]; MG1655, read-out: MIC EC 878 toIC, control compounds",1 µg/mL
same,MIC,"[18]; MG1655, read-out: MIC EC 878 tolC, control compounds, numeric",1 µg/mL
same,MIC,[19]; read-out: MIC SA 161 MRSAtetM,2 µg/mL
same,MIC,[19]; read-out: MIC SA 161 tet M,2 µg/mL
same,MIC,[19]; read-out: MIC SA 161 tetM,2 µg/mL
same,MIC,[20],32 µg/mL
same,MIC,[21],32 µg/mL
same,MIC,[21]; read-out: MIC EC 603 tetA,32 µg/mL
same,MIC,[22]; read-out: MIC SP 312,4 µg/mL
same,MIC,[22]; read-out: MIC SP 312 tet M,4 µg/mL
